Assay [1] is described as follows: (§1) MMV: Anti-babesial activity assay. Parasite pRBCs at 1% parasitemia were cultivated in 100 ul with 96-well plates at 2.5% and 5% hematocrits. The parasites were cultivated in triplicate for 4 days without replacement of the medium for each concentration of the compound. The assay is classed as functional, Babesia bigemina.
Assay [2] in a line: as §1. The assay is classed as functional, Babesia bovis.
A short description of assay [3]: as §1. The assay is classed as functional, Babesia caballi.
Assay [4] is described as follows: as §1. The assay is classed as functional, Babesia equi.

pIC50: −log10 of the molar value.

As to `O=C(NCc1ccco1)C1CCN(S(=O)(=O)c2ccc(Cl)cc2)CC1`, the pIC50 (usually the negative decadic logarithm of the IC50, by convention in mol/L) in assay [1] was 4.89; in assay [2], less than 4.60; in assay [3], 4.60; in assay [4], 5.12.

As for `c1ccc2c(NCCc3c[nH]c4ccccc34)c3ccccc3nc2c1`, the pIC50 is 5.99 in assay [1], 6.15 in assay [2], 6.68 in assay [3] and 5.86 in assay [4].

As to `CCCc1cc(O)c2c3c(c(=O)oc2c1)CN(C)CC3`, the pIC50 is 4.79 in assay [1], 4.62 in assay [2], 5.10 in assay [3] and 4.73 in assay [4].

`CC(C)(C)c1ccc(C(=O)Nc2nc3ccccc3s2)cc1`: the pIC50 was 4.89 in assay [1], 5.15 in assay [2], 6.00 in assay [3] and 5.00 in assay [4].

With `COc1ccc2nc(C)cc(Nc3ccccc3O)c2c1`, the pIC50 is 4.81 in assay [1], 4.60 in assay [2], 6.00 in assay [3] and 5.05 in assay [4].

As for `CN1c2ccccc2N(C)C1c1ccc2c(c1)OCO2`, the pIC50 in assay [1] was 7.00; in assay [2], 5.31; in assay [3] it was 6.44; in assay [4] it was 5.00.

For `CC1CN(C(=O)c2sc3ccccc3c2Cl)CC(C)O1` (stereo not drawn), the pIC50 in assay [1] is 4.74; in assay [2], less than 4.60; in assay [3], 4.72; in assay [4] it was 4.64.

As to `Cc1ccccc1OCCSc1nc2ccc(NC(=O)c3ccccc3)cc2s1`, the pIC50 in assay [1] is 6.59; in assay [2], 6.05; in assay [3], 4.77; in assay [4] it was 6.00.

As for `Cn1c(C(=O)c2cccc3ccccc23)nc2ccccc21`, the pIC50 in assay [1] was 4.92; in assay [2], 5.43; in assay [3], 6.09; in assay [4] it was 5.00.

Turning to `O=C(CCc1ccccc1)c1ccccc1OCC(O)CN1CCCCC1` (stereo not drawn), the pIC50 in assay [1] is 5.24; in assay [2], 5.34; in assay [3], 5.14; in assay [4] it was 4.97.

For `CC(O)(c1ccc(Cl)cc1)C(CN1CCCCC1)c1ccccc1` (stereo not drawn), the pIC50 in assay [1] was 6.06; in assay [2], 4.88; in assay [3], 7.10; in assay [4], 5.15.

Consider `CN(C)c1ccc(N=Cc2ccc(N3CCOCC3)cc2)cc1`, for which the pIC50 is 7.17 in assay [1], 7.17 in assay [2], 7.37 in assay [3] and 6.20 in assay [4].

For the compound `CCOc1cc2c(cc1OCC)C(c1cc(C)c(O)c(C)c1)NCC2` (stereo not drawn), the pIC50 in assay [1] was 4.72; in assay [2] it was 6.00; in assay [3] it was 4.68; in assay [4], 5.43.

For `Cc1ccnc(NC(c2cccc(OCc3ccccc3)c2)c2ccc3cccnc3c2O)c1` (stereo not drawn), the pIC50 in assay [1] was 4.86; in assay [2], 5.72; in assay [3], 5.38; in assay [4], 5.85.

For the compound `COc1ccc2sc(N(Cc3cccnc3)C(=O)c3ccc(C#N)cc3)nc2c1`, the pIC50 in assay [1] is 4.93; in assay [2] it was 4.86; in assay [3], 5.17; in assay [4], 4.84.

For `CCN(CC)CCNc1ncnc2c1[nH]c1ccc(Br)cc12`, the pIC50 in assay [1] was 5.52; in assay [2] it was 6.00; in assay [3], 5.38; in assay [4], 5.34.

Consider `CCOc1cc(CNC(C)C(O)c2ccccc2)cc(Cl)c1OCC` (stereo not drawn), for which the pIC50 was 6.04 in assay [1], 7.09 in assay [2], 5.10 in assay [3] and 5.25 in assay [4].

`CCN(CC)S(=O)(=O)c1ccc(-c2csc(Nc3ccc(C)c(C)c3)n2)cc1`: the pIC50 in assay [1] is 5.00; in assay [2] it was 4.92; in assay [3], 7.10; in assay [4] it was 4.85.

`Brc1ccc(Nc2nc3ccccc3nc2Nc2ccc(Br)cc2)cc1`: the pIC50 in assay [1] is 5.43; in assay [2], 5.68; in assay [3] it was 5.29; in assay [4] it was 5.34.

With `c1ccc(-c2ccc(-c3nc4ccccc4[nH]3)cc2)cc1`, the pIC50 was 5.00 in assay [1], 4.60 in assay [2], 4.83 in assay [3] and 5.00 in assay [4].

For the compound `Cc1ccccc1OCCSc1nc2ccc(NC(=O)c3cccs3)cc2s1`, the pIC50 in assay [1] was 5.29; in assay [2] it was 5.11; in assay [3], 5.26; in assay [4], 4.65.

For `COc1cccc(C2(C)Nc3ccccc3-c3nc4ccccc4n32)c1` (stereo not drawn), the pIC50 in assay [1] is 4.60; in assay [2], 4.86; in assay [3], 6.00; in assay [4], 5.00.

Turning to `COc1ccc(CCNC(=O)c2cc(S(=O)(=O)N3CC(C)CC(C)C3)ccc2Sc2ccc(F)cc2)cc1OC` (stereo not drawn), the pIC50 is 7.07 in assay [1], 6.00 in assay [2], 6.89 in assay [3] and 4.90 in assay [4].

As to `Cc1cc(N2CCN(C3CCCC3)CC2)n2c(nc3ccccc32)c1C#N`, the pIC50 in assay [1] is 7.00; in assay [2] it was 6.12; in assay [3], 6.42; in assay [4] it was 7.19.

As to `COc1ccccc1CNC(=O)CCn1c(=O)[nH]c2ccsc2c1=O`, the pIC50 was 6.17 in assay [1], 5.05 in assay [2], 5.69 in assay [3] and 4.82 in assay [4].

Consider `CCOc1ccc(-c2nc(NC(=O)c3cccc(S(C)(=O)=O)c3)sc2C)cc1`, for which the pIC50 in assay [1] is 4.82; in assay [2], 5.35; in assay [3], 4.93; in assay [4] it was 4.75.

For `CCCCOC(=O)c1ccc(Nc2cc(C)nc3ccc(OC)cc23)cc1`, the pIC50 is 5.00 in assay [1], 4.64 in assay [2], 4.75 in assay [3] and 4.74 in assay [4].

For `OC1=C2C(=Nc3ccccc3SC2c2ccccc2)c2ccccc21` (stereo not drawn), the pIC50 is 6.30 in assay [1], 7.00 in assay [2], 5.06 in assay [3] and 7.00 in assay [4].

For `CCOC(=O)c1cnc2ccc(Cl)cc2c1NCCCN(C)C`, the pIC50 in assay [1] is 5.26; in assay [2], 6.38; in assay [3], 6.96; in assay [4] it was 5.41.

As for `Cc1ccc(C(=O)c2oc3ccc4c(C)cc(=O)oc4c3c2C)cc1`, the pIC50 in assay [1] was 7.19; in assay [2] it was 7.15; in assay [3] it was 5.04; in assay [4], 7.27.

Regarding `CC1(c2ccccc2)Nc2ccccc2-c2nc3ccccc3n21` (stereo not drawn), the pIC50 is 5.00 in assay [1], 4.86 in assay [2], 7.10 in assay [3] and 6.00 in assay [4].

Take `CCOc1ccc(Nc2ccnc3cc(Cl)ccc23)cc1`: the pIC50 is 7.17 in assay [1], 7.25 in assay [2], 5.00 in assay [3] and 4.80 in assay [4].

For `Oc1c(C(Nc2ccccn2)c2cccc(Oc3ccccc3)c2)ccc2cccnc12` (stereo not drawn), the pIC50 is 5.48 in assay [1], 5.17 in assay [2], 5.00 in assay [3] and 4.90 in assay [4].

Consider `CCCn1c(=N)c(C(=O)NC2CCCCC2)cc2c(=O)n3cccc(C)c3nc21`, for which the pIC50 in assay [1] was 4.88; in assay [2], 5.24; in assay [3] it was 5.22; in assay [4] it was 5.53.

Consider `Cc1ccc(CN2CCC(C(=O)Nc3ccc(-c4cc5ccccc5[nH]4)cc3)CC2)o1`, for which the pIC50 in assay [1] is 5.44; in assay [2], 5.26; in assay [3] it was 5.36; in assay [4], 6.48.

Take `COc1ccc(CN2CCN(Cc3ccccc3)CC2)c(O)c1`: the negative-log IC50 (pIC50) in assay [1] was 4.82; in assay [2], 5.09; in assay [3], 4.92; in assay [4], 5.00.

`CCN(CC)c1ccc(NC(=O)c2cccs2)cc1`: the pIC50 in assay [1] is 4.76; in assay [2], 4.62; in assay [3] it was 5.00; in assay [4], 4.87.

Regarding `CCCCc1c(CCC)c(=N)c2ccccc2n1C`, the pIC50 in assay [1] was 7.23; in assay [2], 7.06; in assay [3], 6.00; in assay [4], 4.82.

For `Oc1ccccc1CN1CCN(C(c2ccccc2)c2ccccc2)CC1`, the pIC50 was 4.60 in assay [1], 4.81 in assay [2], 5.43 in assay [3] and 5.36 in assay [4].

Turning to `O=C(Nc1cccc(-c2nc3ccccc3[nH]2)c1)c1cccc(NC(=O)c2ccco2)c1`, the pIC50 in assay [1] was 5.17; in assay [2], 5.48; in assay [3] it was 5.28; in assay [4], 5.43.

As for `Cc1ccc(C)c(Cn2c(N3CCC(C(=O)NCc4cccs4)CC3)nc3ccccc32)c1`, the pIC50 in assay [1] was 7.00; in assay [2], 6.89; in assay [3], 4.78; in assay [4], 5.00.

`COc1cc2c(cc1OC)C1=NNC(=O)C1=NC(C)(C)C2`: the pIC50 in assay [1] is 4.89; in assay [2], 5.17; in assay [3] it was 5.35; in assay [4], 5.44.

With `CC(C)(C)c1ccc(C(=O)Nc2c3c(nn2-c2cccc(Cl)c2)CSC3)cc1`, the pIC50 in assay [1] was 6.14; in assay [2], 5.38; in assay [3] it was 4.77; in assay [4], 5.05.

Consider `COc1ccc(-c2nonc2NC(=O)c2cccc(C)c2)cc1OC`, for which the pIC50 in assay [1] is 6.16; in assay [2], 7.11; in assay [3], 5.00; in assay [4], 5.25.

On to `Cc1sc2ncnc(Sc3nc4ccccc4[nH]3)c2c1C`, for which the pIC50 in assay [1] is 6.39; in assay [2], 7.30; in assay [3], 6.54; in assay [4], 5.26.

Take `CN(C)CCNc1cc(-c2ccccc2)nc2ccccc12`: the pIC50 in assay [1] was 5.52; in assay [2], 5.33; in assay [3], 7.00; in assay [4], 6.23.

Take `COc1ccc(Nc2cc(C)nc(NCc3ccccc3)n2)cc1`: the pIC50 in assay [1] was 7.17; in assay [2], 7.27; in assay [3], 4.84; in assay [4] it was 4.82.

The values are drawn from ChEMBL document CHEMBL3301464, “MMV Malaria Box anti-babesial screening”.
